# Measurements published in patent US20090149530A1 (priority 2007, published 2009).
# Columns and labels:
# [1] = tested on: H5N1 virions; type: binding, Avian influenza A virus (H5N1); details: Averionol to Istrocyanidin bound
# [2] = tested on: Dengue-2 virus particles; type: binding; details: Den-2; Averionol to Istrocyanidin bound
structure (smiles),measurement,setting,value
COc1cc(OC)c2c(=O)c(O)c(-c3ccc(OC)c(OC)c3)oc2c1 [Averionol],Aver:Istro Ratio,[1],14.0
same,Aver:Istro Ratio,[2],3.7
